US4921855A, “New Histidyl amino acid derivatives, and pharmaceutical composition comprising the same” (Fujisawa Pharmaceutical Co., Ltd., priority 1987, dated 1990)

Target: T1, renin (Homo sapiens, UniProt P00797)
T1 construct: endogenous renin and angiotensinogen in plasma; from tissue; host or cells: pooled human plasma (EDTA) from male volunteers
T1 sequence (P00797 67-406): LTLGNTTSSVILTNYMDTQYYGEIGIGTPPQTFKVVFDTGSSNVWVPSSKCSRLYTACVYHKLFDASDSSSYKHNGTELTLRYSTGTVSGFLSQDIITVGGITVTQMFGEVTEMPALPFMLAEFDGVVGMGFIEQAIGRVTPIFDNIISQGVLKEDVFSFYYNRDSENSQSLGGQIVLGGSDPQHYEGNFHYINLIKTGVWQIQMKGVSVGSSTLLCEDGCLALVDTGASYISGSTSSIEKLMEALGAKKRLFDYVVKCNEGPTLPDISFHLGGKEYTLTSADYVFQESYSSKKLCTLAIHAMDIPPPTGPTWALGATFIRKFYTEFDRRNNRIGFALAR
Assay: Inhibition of human plasma renin activity (angiotensin I formation, RIA)
Assay type: biochemical
Conditions: endogenous renin and angiotensinogen, pH 6.0, 37° C, 90 minutes, RIA of Ang I
Description: Human plasma was collected from male volunteers pretreated with no drugs and used as a pool. Disodium salt of ethylenediaminetetraacetic acid (EDTA) was used as the anticoagulant. Plasma renin activity was measured as the rate of angiotensin I (Ang I) formation after incubation (37° C) of the endogenous renin and angiotensinogen in plasma at pH 6.0. The incubation mixture contained 250 μl of plasma, 5 μl of (phenylmethyl)sulfonyl fluoride, 30 μl of buffer (sodium, potassium-phosphate, pH 6.0), and 15 μl of an appropriate concentration of test compound in 50% ethyl alcohol-water vehicle. The Ang I formed after 90 minutes of incubation was measured by radioimmunoassay (RIA) which was carried out with a commercial kit, RENCTK 100 (manufactured by Commissariat A L'energic Atomique). Samples were incubated in duplicate and each tube was measured in duplicate in the RIA. Percentage inhibition of plasma renin activity was calculated by comparing the amount of Ang I produced with and without a test compound. The concentration of test compound that inhibited plasma renin activity by 50% (IC50) was determined by Probit method.

SMILES: CC(C)CC[C@H](O)[C@H](CC1CCCCC1)NC(=O)[C@H](Cc1c[nH]cn1)NC(=O)[C@H](Cc1ccccc1)OC(=O)N1CCOCC1 [(1)]
- IC50: 19 nM

SMILES: CC(C)CC[C@H](O)[C@H](CC1CCCCC1)NC(=O)[C@H](Cc1c[nH]cn1)N(C)C(=O)[C@H](Cc1ccccc1)OC(=O)N1CCOCC1 [(2)]
- IC50: 80 nM

SMILES: COC(=O)CN(C)C(=O)O[C@@H](Cc1ccccc1)C(=O)N(C)[C@@H](Cc1c[nH]cn1)C(=O)N[C@@H](CC1CCCCC1)[C@@H](O)CCC(C)C [(3)]
- IC50: 33 nM

SMILES: COC(=O)[C@H]1CCCN1C(=O)O[C@@H](Cc1ccccc1)C(=O)N(C)[C@@H](Cc1c[nH]cn1)C(=O)N[C@@H](CC1CCCCC1)[C@@H](O)CCC(C)C [(4)]
- IC50: 13 nM

SMILES: CC(C)CC[C@H](O)[C@H](CC1CCCCC1)NC(=O)[C@H](Cc1c[nH]cn1)N(C)C(=O)[C@H](Cc1ccccc1)OC(=O)N(C)CCC(=O)N(C)C [(6)]
- IC50: 41 nM

SMILES: CC(C)CC[C@H](O)[C@H](CC1CCCCC1)NC(=O)[C@H](Cc1c[nH]cn1)N(C)C(=O)[C@H](Cc1ccccc1)OC(=O)N(C)CC(=O)N(C)C [(7)]
- IC50: 40 nM

SMILES: CC(C)CC[C@H](O)[C@H](CC1CCCCC1)NC(=O)[C@H](Cc1c[nH]cn1)N(C)C(=O)[C@H](Cc1ccccc1)OC(=O)N(C)CC(=O)NCc1ccncc1 [(8)]
- IC50: 46 nM

SMILES: CC(C)CC[C@H](O)[C@H](CC1CCCCC1)NC(=O)[C@H](Cc1c[nH]cn1)N(C)C(=O)[C@H](Cc1ccccc1)OC(=O)N1CCC[C@@H]1C(=O)N(C)C [(9)]
- IC50: 30 nM

SMILES: CC(C)CC[C@H](O)[C@H](CC1CCCCC1)NC(=O)[C@H](Cc1c[nH]cn1)N(C)C(=O)[C@H](Cc1ccccc1)OC(=O)N1CC(=O)N2CCC[C@H]2C1 [(10)]
- IC50: 21 nM

SMILES: CC(C)CC[C@H](O)[C@H](CC1CCCCC1)NC(=O)[C@H](Cc1c[nH]cn1)N(C)C(=O)[C@H](Cc1ccccc1)OC(=O)N1CCN(C)C(=O)C1 [(11)]
- IC50: 19 nM

SMILES: CC(C)CC[C@H](O)[C@H](CC1CCCCC1)NC(=O)[C@H](Cc1c[nH]cn1)N(C)C(=O)[C@H](Cc1ccccc1)OC(=O)N1CCNC(=O)C1 [(12)]
- IC50: 29 nM

SMILES: CC(C)CC[C@H](O)[C@H](CC1CCCCC1)NC(=O)[C@H](Cc1c[nH]cn1)N(C)C(=O)[C@H](Cc1ccccc1)OC(=O)N(C)CC(=O)OCC(C)C [(13)]
- IC50: 34 nM

SMILES: CC(C)CC[C@H](O)[C@H](CC1CCCCC1)NC(=O)[C@H](Cc1c[nH]cn1)N(C)C(=O)[C@H](Cc1ccccc1)OC(=O)N(C)CC(=O)OCCc1ccccc1 [(14)]
- IC50: 48 nM

SMILES: CC(=O)COC(=O)CN(C)C(=O)O[C@@H](Cc1ccccc1)C(=O)N(C)[C@@H](Cc1c[nH]cn1)C(=O)N[C@@H](CC1CCCCC1)[C@@H](O)CCC(C)C [(15)]
- IC50: 33 nM

SMILES: CCOC(=O)CNC(=O)CCN(C)C(=O)O[C@@H](Cc1ccccc1)C(=O)N(C)[C@@H](Cc1c[nH]cn1)C(=O)N[C@@H](CC1CCCCC1)[C@@H](O)CCC(C)C [(16)]
- IC50: 38 nM

SMILES: CC(C)CC[C@H](O)[C@H](CC1CCCCC1)NC(=O)[C@H](Cc1c[nH]cn1)N(C)C(=O)[C@H](Cc1ccccc1)OC(=O)N(C)CCC(=O)NCc1ccccn1 [(17)]
- IC50: 33 nM

SMILES: CC(C)CC[C@H](O)[C@H](CC1CCCCC1)NC(=O)[C@H](Cc1c[nH]cn1)N(C)C(=O)[C@H](Cc1ccccc1)OC(=O)N(C)CCC(=O)N1CCSCC1 [(18)]
- IC50: 30 nM

SMILES: CC(C)CC[C@H](O)[C@H](CC1CCCCC1)NC(=O)[C@H](Cc1c[nH]cn1)NC(=O)[C@H](Cc1ccccc1)OC(=O)N(C)CCC(=O)N1CCOCC1 [(19)]
- IC50: 4.8 nM

SMILES: CC(C)CC[C@H](O)[C@H](CC1CCCCC1)NC(=O)[C@H](Cc1c[nH]cn1)N(C)C(=O)[C@H](Cc1ccccc1)OC(=O)N(C)N(C)C(=O)OCC(C)C [(20)]
- IC50: 70 nM

SMILES: CC(C)CC[C@H](O)[C@H](CC1CCCCC1)NC(=O)[C@H](Cc1c[nH]cn1)N(C)C(=O)[C@H](Cc1ccccc1)OC(=O)N(C)N(C)C(=O)NC(C)C [(21)]
- IC50: 43 nM

SMILES: CC(C)CC[C@H](O)[C@H](CC1CCCCC1)NC(=O)[C@H](Cc1c[nH]cn1)N(C)C(=O)[C@H](Cc1ccccc1)OC(=O)N1CCCN1C(=O)NC(C)C [(22)]
- IC50: 63 nM

SMILES: CC(C)CC[C@H](O)[C@H](CC1CCCCC1)NC(=O)[C@H](Cc1c[nH]cn1)N(C)C(=O)[C@H](Cc1ccccc1)OC(=O)N(C)CCN(C)C(=O)CC(C)C [(25)]
- IC50: 14 nM

SMILES: CC(C)CC[C@H](O)[C@H](CC1CCCCC1)NC(=O)[C@H](Cc1c[nH]cn1)N(C)C(=O)[C@H](Cc1ccccc1)OC(=O)N(C)CCC(=O)N(C)c1ccccc1 [(26)]
- IC50: 24 nM

SMILES: CC(C)CC[C@H](O)[C@H](CC1CCCCC1)NC(=O)[C@H](Cc1c[nH]cn1)N(C)C(=O)[C@H](Cc1ccccc1)OC(=O)N(C)CCC(=O)N(C)CC(C)C [(27)]
- IC50: 46 nM

SMILES: CC(C)CC[C@H](O)[C@H](CC1CCCCC1)NC(=O)[C@H](Cc1c[nH]cn1)N(C)C(=O)[C@H](Cc1ccccc1)OC(=O)N1CCCC(=O)C1 [(28)]
- IC50: 44 nM

SMILES: CC(C)CC[C@H](O)[C@H](CC1CCCCC1)NC(=O)[C@H](Cc1c[nH]cn1)N(C)C(=O)[C@H](Cc1ccccc1)OC(=O)N(C)CCCCC(=O)N(C)C(C)C [(29)]
- IC50: 16 nM

SMILES: CC(C)CC[C@H](O)[C@H](CC1CCCCC1)NC(=O)[C@H](Cc1c[nH]cn1)N(C)C(=O)[C@H](Cc1ccccc1)OC(=O)N(C)CCCCC(=O)NC(C)C [(30)]
- IC50: 6.4 nM

SMILES: CC(C)CC[C@H](O)[C@H](CC1CCCCC1)NC(=O)[C@H](Cc1c[nH]cn1)N(C)C(=O)[C@H](Cc1ccccc1)OC(=O)N(C)CCCN(C)C(=O)N1CCOCC1 [(31)]
- IC50: 13 nM

SMILES: CC(C)CC[C@H](O)[C@H](CC1CCCCC1)NC(=O)[C@H](Cc1c[nH]cn1)N(C)C(=O)[C@H](Cc1ccccc1)OC(=O)N(C)CCCC(=O)N1CCOCC1 [(32)]
- IC50: 15 nM

SMILES: CC(C)CC[C@H](O)[C@H](CC1CCCCC1)NC(=O)[C@H](Cc1c[nH]cn1)N(C)C(=O)[C@H](Cc1ccccc1)OC(=O)N(C)CCCC(=O)N(C)C(C)C [(33)]
- IC50: 17 nM

SMILES: CC(C)CC[C@H](O)[C@H](CC1CCCCC1)NC(=O)[C@H](Cc1c[nH]cn1)N(C)C(=O)[C@H](Cc1ccccc1)OC(=O)N(C)CCCCN(C)C(=O)N1CCOCC1 [(34)]
- IC50: 7.5 nM

SMILES: CC(C)CC[C@H](O)[C@H](CC1CCCCC1)NC(=O)[C@H](Cc1c[nH]cn1)N(C)C(=O)[C@H](Cc1ccccc1)OC(=O)N(C)CCCCC(=O)N1CCOCC1 [(35)]
- IC50: 5.3 nM

SMILES: CC(C)CC[C@H](O)[C@H](CC1CCCCC1)NC(=O)[C@H](Cc1c[nH]cn1)NC(=O)[C@H](Cc1ccccc1)OC(=O)N(C)N(C)C(=O)N1CCOCC1 [(36)]
- IC50: 9.8 nM

SMILES: CC(C)CC[C@H](O)[C@H](CC1CCCCC1)NC(=O)[C@H](Cc1c[nH]cn1)N(C)C(=O)[C@H](Cc1ccccc1)OC(=O)N(C)CCC(=O)N(C)CCc1ccccn1 [(37)]
- IC50: 38 nM

SMILES: CC(C)CC[C@H](O)[C@H](CC1CCCCC1)NC(=O)[C@H](Cc1c[nH]cn1)N(C)C(=O)[C@H](Cc1ccccc1)OC(=O)N(C)CCC(=O)N1CC=CCC1 [(38)]
- IC50: 44 nM

SMILES: CC(C)CC[C@H](O)[C@H](CC1CCCCC1)NC(=O)[C@H](Cc1c[nH]cn1)N(C)C(=O)[C@H](Cc1ccccc1)OC(=O)N(C)CCC(=O)NC(C)C [(39)]
- IC50: 37 nM

SMILES: CC(C)CC[C@H](O)[C@H](CC1CCCCC1)NC(=O)[C@H](Cc1c[nH]cn1)N(C)C(=O)[C@H](Cc1ccccc1)OC(=O)N(C)CCS(=O)(=O)C(C)C [(40)]
- IC50: 57 nM
